# Measured values published in patent publication US20120059034A1, “NOVEL CRYSTALLINE HYDRATE, AMORPHOUS AND POLYMORPHIC FORMS OF DIHYDRO-BENZOXAZOLE-6-YL-ACETAMIDE DERIVATIVE AND PROCESSES FOR THEIR PREPARATION” (priority 2009, published 2012).
# Tests used:
# [1] = Storage stability of the amorphous form against crystallization; assay type: physicochemical; conditions: normal laboratory conditions, several months
# Text: (§1) 1. There are no reflections on XRPD pattern of radiprodil amorphous form. 2. Characteristic IR absorption bands of radiprodil amorphous form are the followings: 3275, 1768, 1685, 1219 and 544±4 cm^−1. 3. Characteristic Raman absorption bands of radiprodil amorphous are the followings: 3071, 1687, 1640, 1414, 1280 and 852±4 cm^−1. […] One particular advantage of the discovered amorphous Form is that it is relatively stable.
# [2] = Solubility and dissolution rate of solid forms; assay type: physicochemical
# Protocol: (§2) 1. Characteristic reflections of radiprodil monohydrate are the followings: 4.9, 15.1, 18.1, 26.8 and 30.2±0.2° 2θ 2. Characteristic IR absorption bands of radiprodil monohydrate are the followings: 3644, 1836, 1809, 1789, 1645 and 919±4 cm^−1. 3. Characteristic Raman absorption bands of radiprodil monohydrate are the followings: 2887, 1642, 1484, 1295 and 726±4 cm^−1. […] While the dihydrate Form can be dehydrated relatively easily at elevated temperature, the monohydrate Form is sufficiently stable under such conditions. […] This relative stability of the monohydrate Form compared to the dihydrate Form is advantageous in formulation technological steps involving elevated temperatures.
# as §1
# [3] = Stress stability of the solid form (chemical impurities and physical form); assay type: physicochemical; conditions: stress conditions 25° C./75% RH; 50° C.; 50° C./oxygen; 50° C./75% RH; 50° C./90% RH; 75° C.; 75° C./oxygen, 10 days
# Protocol: (§3) (IV) a DSC trace substantially in accordance with FIG. 5; • Characteristic diffraction and spectroscopic data of radiprodil anhydrate Form A are as follows: 1. Characteristic XRPD reflections of radiprodil anhydrate Form A are the following: 7.8, 22.0, 23.7, 27.0 and 27.6±0.2° 2 θ 2. Characteristic IR absorption bands of radiprodil anhydrate Form A are the following: 3295, 2863, 1852, 1768, 1058 and 635±4 cm^−1. 3. Characteristic Raman absorption bands of radiprodil anhydrate Form A are the following: 3106, 1680, 1641, 1470, 1274 and 507±4 cm^−1. […] All the other discovered solid forms can be converted to anhydrate Form A in suspension. This conversion takes place in absolute ethanol or in ethanol:water mixtures within a few hours. This relative stability advantage of anhydrous Form A of radiprodil can be favorably utilized in the development of active ingredient as well as dosage forms that are sufficiently stable both chemically and physically during extended shelf life. […] Due to its physical stability and non-hygroscopic character this polymorphic form is particularly advantageous in dosage formulation processes where the active ingredient is exposed to water during the process, such as wet granulation.
# [4] = Relative thermodynamic stability, conversion of solid forms in suspension; assay type: physicochemical; conditions: room temperature
# Protocol: as §3
# [5] = Pharmacokinetic profile in dogs (plasma concentrations by validated HPLC(UV) method); assay type: in vivo; conditions: 5 mg/kg dose adjusted to the anhydrous active substance, plasma samples up to 24 hours post dose
# Protocol: Another essential value of the dihydrate Form is the observed better pharmacokinetic profile in dogs compared to the anhydrate Form A. Both forms in 5 mg/kg dose adjusted to the anhydrous active substance were administered to dogs and relevant pharmacokinetic parameters (AUC, Cmax) were calculated from the plasma profiles of the individual animals. The animals were […] seventeen hours before and six hours after drug administration. Plasma concentrations were measured in the trial samples taken up to 24 hours post dose by a validated HPLC(UV) method.
# [6] = Hygroscopicity, weight gain at elevated humidity; assay type: physicochemical; conditions: 50° C./90% RH, 10 days
# Protocol: as §3
# [7] = Thermal stability, loss of water of hydration at 50° C. in N2 atmosphere; assay type: physicochemical
# Protocol: as §2
smiles,measurement,setting,value
"O=C(Nc1ccc2[nH]c(=O)oc2c1)C(=O)N1CCC(Cc2ccc(F)cc2)CC1 [amorphous Form, 2-[4-(4-Fluorobenzyl)-piperidin-1-yl]-2-oxo-N-(2-oxo-2,3-dihydro-benzoxazol-6-yl)-acetamide amorphous form]",crystallization on storage,[1],without crystallization
same,dissolution rate among the solid forms,[2],largest
same,solubility among the solid forms,[2],largest
"O=C(Nc1ccc2[nH]c(=O)oc2c1)C(=O)N1CCC(Cc2ccc(F)cc2)CC1 [anhydrate Form A, 2-[4-(4-Fluorobenzyl)-piperidin-1-yl]-2-oxo-N-(2-oxo-2,3-dihydro-benzoxazol-6-yl)-acetamide anhydrate Form A]",change of sum of chemical impurities and of physical form compared to the starting material,[3],neither the sum of chemical impurities nor the physical form has changed
same,thermodynamic stability among the discovered forms,[4],thermodynamically most stable form
same,AUC24,[5],1554 ng·h/mL
same,Cmax,[5],125 ng/mL
same,weight gain (hygroscopicity),[6],did not show measurable weight gain
"O=C(Nc1ccc2[nH]c(=O)oc2c1)C(=O)N1CCC(Cc2ccc(F)cc2)CC1 [dihydrate Form, 2-[4-(4-Fluorobenzyl)-piperidin-1-yl]-2-oxo-N-(2-oxo-2,3-dihydro-benzoxazol-6-yl)-acetamide dihydrate]",AUC24,[5]; dihydrate,4491 ng·h/mL
same,Cmax,[5]; dihydrate,395 ng/mL
same,time to loss of water of hydration,[7],2 h
"O=C(Nc1ccc2[nH]c(=O)oc2c1)C(=O)N1CCC(Cc2ccc(F)cc2)CC1 [monohydrate Form, 2-[4-(4-Fluorobenzyl)-piperidin-1-yl]-2-oxo-N-(2-oxo-2,3-dihydro-benzoxazol-6-yl)-acetamide monohydrate]",solubility compared to anhydrate Form A,[2],greater solubility
same,weight loss (water of hydration),[7]; same conditions as dihydrate Form (2 hours),does not show detectable weight loss
